Test results reported in US10011616B2, “Boron-containing small molecules as antiprotozoal1 agents” (MMV MEDICINES FOR MALARIA VENTURE, priority 2015, dated 2018).

Assays:
[1] = system: 3D7 strain of Plasmodium falciparum; assay: In vitro activity against 3D7 strain of Plasmodium falciparum ([3H]-hypoxanthine incorporation assay); assay type: cell-based; conditions: Erythrocyte, 48 h, P. falciparum 3D7 in human erythrocytes, 2 d, growth inhibition, read-out: IC50: 1 Org. Growth P. falciparum 3D7, 2 d (LPS_00570)
Experimental: In Vitro Activity Against Plasmodium falciparum a) Against 3D7 Strain of Plasmodium falciparum Inhibition of 3D7 strain parasites was assessed using the [^3H]-hypoxanthine incorporation assay (Desjardins, et al. Antimicrob. Agents Chemother. 1979, 16, 710-718). Briefly, parasites were cultured in human erythrocytes (from the Spanish Red Cross blood bank) using RPMI-1640 culture media (Gibco) supplemented with 0.5% Albumax II (Invitrogen), 2% D-sucrose (Sigma-Aldrich), 0.3% glutamine (Sigma-Aldrich), and 5 mM hypoxanthine (Sigma-Aldrich). Cultures were maintained at 37° C. at an atmosphere of 5% O2, 5% CO2, and […]. To assess inhibition, asynchronous parasite cultures with 0.5% parasitemia and 2% hematocrit were exposed to 3-fold serial dilutions of test compounds for 24 hours in 96 well plate cultures (Costar #3894). After 24 hours, [^3H]-hypoxanthine was added, plates were incubated for an additional 24 hours, and parasites were harvested on glass fiber filters (Wallac #1450-421) using a cell harvester 96 (TOMTEC, Perkin Elmer). Filters were dried on scintillator sheets (MeltiLex A, PerkinElmer #1450-441) to determine incorporation of [^3H]-hypoxanthine. Radioactivity was measured using a microbeta counter (Perkin Elmer). Data are normalized using the incorporation of the positive control (infected erythrocytes without drug). IC50 values were determined using Excel and Grafit 5 software. Values were determined from at least three independent experiments, and standard deviations were calculated.

[2] = system: W2 strain of Plasmodium falciparum; assay: In vitro activity against W2 strain of Plasmodium falciparum (YOYO-1 flow cytometry); assay type: cell-based; conditions: Erythrocyte, 48 h, P. falciparum W2 in human erythrocytes, 2 d, growth inhibition, read-out: IC50: 1 Org. Growth P. falciparum W2, 2 d (LPS_00451)
Experimental: In Vitro Activity Against Plasmodium falciparum
b) Against W2 Strain of Plasmodium falciparum
W2 strain P. falciparum parasites were cultured in human erythrocytes and RPMI-1640 culture media with either 10% human serum or 0.5% Albumax serum substitute under 3% O2, 5% CO2, and 92% N2. Parasites synchronized to ring stage by treatments with 5% D-sorbitol were cultured with serial dilutions of benzoxaboroles from 5 to 10 mM stocks in 96 well microplate cultures including 200 μL of media/well, 2% hematocrit, and 1% parasitemia. At the completion of 48 h incubations, when untreated cultures contained new rings, parasites were fixed with 2% formaldehyde for 48 h, and 5 μL aliquots were transferred to another 96 well plate containing 150 μL/well of staining solution (100 mM NH4Cl, 0.1% Triton X-100, and 1 nM YOYO-1 in PBS). Parasites per erythrocyte were then determined by flow cytometry from plots of forward scatter against fluorescence (excitation 488 nm, emission 520 nm) using a FacSort flow cytometer (Beckton Dickinson) equipped with an AMS Loader (Cytek Development). All values were normalized to percent control activity, and IC50s were calculated using the Prism 3.0 program (GRAPHPAD Software). Goodness of fit was assessed by R^2 values, and meaningful dose-response curves yielded R^2 values >0.95.

Compound	IC50 [1]	IC50 [2]
C=C[C@@H](CO)NC(=O)c1cnc(Oc2ccc3c(c2C)B(O)OC3)cn1 [Example 29, (S)-5-(1-hydroxy-7-methyl-1,3-dihydrobenzo[c][1,2]oxaborol-6-yloxy)-N-(1-hydroxybut-3-en-2-yl)pyrazine-2-carboxamide]	764 nM	828 nM
CC[C@H](NC(=O)c1cnc(Oc2ccc3c(c2C)B(O)OC3)cn1)C(C)(C)O [Example 53, (S)—N-(2-hydroxy-2-methylpentan-3-yl)-5-(1-hydroxy-7-methyl-1,3-dihydrobenzo[c][1,2]oxaborol-6-yloxy)pyrazine-2-carboxamide]	829 nM	279 nM
CC[C@@H](NC(=O)c1cnc(Oc2ccc3c(c2C)B(O)OC3)cn1)C(C)(C)O [Example 45, (R)—N-(2-hydroxy-2-methylpentan-3-yl)-5-(1-hydroxy-7-methyl-1,3-dihydrobenzo[c][1,2]oxaborol-6-yloxy)pyrazine-2-carboxamide]	222 nM	91.8 nM
Cc1c(Oc2cnc(C(=O)N[C@@H](CO)c3ccccc3)cn2)ccc2c1B(O)OC2 [Example 26, (R)—N-(2-hydroxy-1-phenylethyl)-5-(1-hydroxy-7-methyl-1,3-dihydrobenzo[c][1,2]oxaborol-6-yloxy)pyrazine-2-carboxamide]	161 nM	103 nM
Cc1c(Oc2cnc(C(=O)N[C@H](C)CO)cn2)ccc2c1B(O)OC2 [Example 11]	848 nM	944 nM
Cc1c(Oc2cnc(C(=O)N[C@@H](CO)Cc3ccccc3)cn2)ccc2c1B(O)OC2 [Example 27, (R)—N-(1-hydroxy-3-phenylpropan-2-yl)-5-(1-hydroxy-7-methyl-1,3-dihydrobenzo[c][1,2]oxaborol-6-yloxy)pyrazine-2-carboxamide]	505 nM	115 nM
Cc1c(Oc2cnc(C(=O)N[C@@H]3CCC[C@H]3O)cn2)ccc2c1B(O)OC2 [Example 42, 5-((1-hydroxy-7-methyl-1,3-dihydrobenzo[c][1,2]oxaborol-6-yl)oxy)-N-((1R,2R)-2-hydroxycyclopentyl)pyrazine-2-carboxamide]	245 nM	133 nM
Cc1c(Oc2cnc(C(=O)N[C@H](CO)C(C)C)cn2)ccc2c1B(O)OC2 [Example 23, (S)—N-(1-hydroxy-3-methylbutan-2-yl)-5-(1-hydroxy-7-methyl-1,3-dihydrobenzo[c][1,2]oxaborol-6-yloxy)pyrazine-2-carboxamide]	1990 nM	774 nM
CCC[C@H](NC(=O)c1cnc(Oc2ccc3c(c2C)B(O)OC3)cn1)C(C)(C)O [Example 44, (S)—N-(2-hydroxy-2-methylhexan-3-yl)-5-(1-hydroxy-7-methyl-1,3-dihydrobenzo[c][1,2]oxaborol-6-yloxy)pyrazine-2-carboxamide]	217 nM	129 nM
CSC[C@H](CO)NC(=O)c1cnc(Oc2ccc3c(c2C)B(O)OC3)cn1 [Example 35, (S)—N-(1-hydroxy-3-(methylthio)propan-2-yl)-5-((1-hydroxy-7-methyl-1,3-dihydrobenzo[c][1,2]oxaborol-6-yl)oxy)pyrazine-2-carboxamide]	73.7 nM	370 nM
Cc1c(Oc2cnc(C(=O)N3CC(O)(C(F)(F)F)C3)cn2)ccc2c1B(O)OC2 [Example 58, (3-hydroxy-3-(trifluoromethyl)azetidin-1-yl) (5-((1-hydroxy-7-methyl-1,3-dihydrobenzo[c][1,2]oxaborol-6-yl)oxy)pyrazin-2-yl)methanone]	13.9 nM	6.6 nM
COC[C@H](CO)NC(=O)c1cnc(Oc2ccc3c(c2C)B(O)OC3)cn1 [Example 32, (S)—N-(1-hydroxy-3-methoxypropan-2-yl)-5-((1-hydroxy-7-methyl-1,3-dihydrobenzo[c][1,2]oxaborol-6-yl)oxy)pyrazine-2-carboxamide]	796 nM	512 nM
Cc1c(Oc2cnc(C(=O)NC(CO)c3ccccc3)cn2)ccc2c1B(O)OC2 (stereo not drawn) [Example 16, N-(2-hydroxy-1-phenylethyl)-5-(1-hydroxy-7-methyl-1,3-dihydrobenzo[c][1,2]oxaborol-6-yloxy)pyrazine-2-carboxamide]	380 nM	223 nM
Cc1c(Oc2cnc(C(=O)N3CC(O)(C(C)C)C3)cn2)ccc2c1B(O)OC2 [Example 57, (3-hydroxy-3-isopropylazetidin-1-yl) (5-((1-hydroxy-7-methyl-1,3-dihydrobenzo[c][1,2]oxaborol-6-yl)oxy)pyrazin-2-yl)methanone]	369 nM	40.7 nM
Cc1c(Oc2cnc(C(=O)N[C@@H](CO)CCC(F)(F)F)cn2)ccc2c1B(O)OC2 [Example 37, (R)-5-(1-hydroxy-7-methyl-1,3-dihydrobenzo[c][1,2]oxaborol-6-yloxy)-N-(5,5,5-trifluoro-1-hydroxypentan-2-yl)pyrazine-2-carboxamide]	480 nM	230 nM
Cc1c(Oc2cnc(C(=O)NC(CO)C(C)C)cn2)ccc2c1B(O)OC2 (stereo not drawn) [Example 7, N-(1-hydroxy-3-methylbutan-2-yl)-5-(1-hydroxy-7-methyl-1,3-dihydrobenzo[c][1,2]oxaborol-6-yloxy)pyrazine-2-carboxamide]	96.5 nM	115 nM
Cc1c(Oc2cnc(C(=O)N3CCC(C)(O)C3)cn2)ccc2c1B(O)OC2 (racemic) [Example 40, (3-hydroxy-3-methylpyrrolidin-1-yl) (5-((1-hydroxy-7-methyl-1,3-dihydrobenzo[c][1,2]oxaborol-6-yl)oxy)pyrazin-2-yl)methanone]	314 nM	139 nM
Cc1c(Oc2cnc(C(=O)N[C@@H](CO)C3CC3)cn2)ccc2c1B(O)OC2 [Example 24, (R)—N-(1-cyclopropyl-2-hydroethyl)-5-(1-hydroxy-7-methyl-1,3-dihydrobenzo[c][1,2]oxaborol-6-yloxy)pyrazine-2-carboxamide]	587 nM	492 nM
Cc1c(Oc2cnc(C(=O)N(C)CCO)cn2)ccc2c1B(O)OC2 [Example 10, 5-(1-hydroxy-7-methyl-1,3-dihydrobenzo[c][1,2]oxaborol-6-yloxy)-N-(2-hydroxyethyl)-N-methylpyrazine-2-carboxamide]	437 nM	262 nM
Cc1c(Oc2cnc(C(=O)NC(CO)Cc3ccccc3)cn2)ccc2c1B(O)OC2 (stereo not drawn) [Example 15, N-(1-hydroxy-3-phenylpropan-2-yl)-5-(1-hydroxy-7-methyl-1,3-dihydrobenzo[c][1,2]oxaborol-6-yloxy)pyrazine-2-carboxamide]	407 nM	297 nM
Cc1c(Oc2cnc(C(=O)NC(CO)CC(C)C)cn2)ccc2c1B(O)OC2 (stereo not drawn) [Example 8, N-(1-hydroxy-4-methylpentan-2-yl)-5-((1-hydroxy-7-methyl-1,3-dihydrobenzo[c][1,2]oxaborol-6-yl)oxy)pyrazine-2-carboxamide]	937 nM	930 nM
